{"source": "patent US12329755B2", "about": "“Bromodomain inhibitors to target therapy-resistant cancer” (University of Tennessee Research Foundation, priority 2019, dated 2025)", "key": {"bromodomain of BRG1": {"target": "T1, bromodomain of BRG1 (Homo sapiens, UniProt P51532)", "T1 construct": "The assay involved the use of the bromodomain of BRG1 in MT330 GBM cells; expressed in transfected cells; host or cells: MT330 GBM cells", "T1 sequence (P51532 1453-1564 limits assumed)": "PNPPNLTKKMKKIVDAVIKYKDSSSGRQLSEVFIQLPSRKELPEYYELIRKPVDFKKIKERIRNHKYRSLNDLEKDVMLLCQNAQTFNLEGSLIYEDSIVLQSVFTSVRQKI", "test": "thermal shift assay of the BRG1 bromodomain in MT330 GBM cells", "format": "binding", "settings": "44.5° C. to 55.6° C.; PFI-3 30 μM, IV-073 20 μM, two hours; compared to DMSO", "experimental": "FIG. 3 is a series of immunoblot images showing the effects of Brahma-related gene-1 bromodomain inhibitors (BRIs) on the stability of the bromodomain of Brahma-related gene-1 in a thermal assay shift of the bromodomain in glioblastoma cells over a temperature range from 44.5 degrees Celsius (° C.) to 55.6° C. Cells were treated with (middle) PFI-3 (30 micromolar (μM)) for two hours or (right), a PFI-3 analog of the presently disclosed subject matter (IV-073) (20 μM) for two hours. For comparison, control cells treated with dimethyl sulfoxide (DMSO) are shown at […].\nTo further study the activity of the presently disclosed PFI-3 analogs, a thermal shift assay was employed. The assay involved the use of the bromodomain of BRG1 in MT330 GBM cells at temperatures ranging from 44.5° C. to 55.6° C."}, "X16 BTIC": {"test_system": "X16 BTIC", "test": "X16 BTIC mouse flank xenografts", "format": "in vivo, mice", "settings": "combined with TMZ, 8 weeks", "experimental": "FIG. 1F is a graph showing the effect of temozolomide (TMZ) on the tumorigenicity of control (black portion of bars) and Brahma-related gene-1-knock-down (BRG1-KD) (grey portion of bars) brain-tumor initiating cells (BTICs) after injection of 10^6 tumor cells into the flanks of immunodeficient mice. Live animal imaging preformed at weekly intervals. After confirming tumor initiation by live animal imaging, mice were treated with TMZ by interperitoneal (IP) injection (10 milligrams per kilogram (mg/kg) on alternate days). The reduction in tumor volume was calculated at 1 week (left) and 2 weeks (right) post-treatment. *p≤0.05.\nFIG. 5 is a graph showing the effect of Brahma-related gene-1 bromodomain inhibitors (BRIs), PFI-3 and the PFI-3 analogs (PAs) IV-073, IV-077, and IV-085, on the anticancer activity of temozolomide (TMZ) on brain-tumor initiating-cell (BTIC) tumor growth. BTICs (10^6 cells) from X16 glioblastoma were injected into the flanks of immunodeficient mice. After confirming tumor initiation by live animal imaging, mice were treated with PFI-3 or a PA (0.5 microgram per mouse (μg/mouse)) and TMZ (0.25 mg/mouse) by intrarperitoneal (IP) injection on alternate days. The reduction in tumor volume was calculated at 2 weeks post-treatment.\n(§1) BRG1 loss sensitizes BTICs to TMZ in vitro and in vivo: Although the alkylating agent TMZ is front-line chemotherapy in the treatment of GBM, a significant clinical problem is intrinsic or adaptive resistance to TMZ.^63 To evaluate TMZ sensitivity, GBM6 or X16 BTICs were treated with 300 μM or 500 μM TMZ, and cell proliferation was determined. […] Since BRG1 has been implicated in DNA double-strand break repair,^65-67 it was hypothesized that BRG1 loss in BTICs would sensitize BTICs to TMZ. […] To determine whether BRG1-KD sensitized BTICs to TMZ in vivo, animal studies were conducted with control (scrambled shRNA) and BRG1-KD X16 BTICs injected into the flanks of NSG mice. After tumor initiation was confirmed by live animal imaging, mice were treated with TMZ. […] Thus, despite X16 BRG1-KD BTICs producing larger tumors, the tumors were sensitized to TMZ therapy.\nIn contrast, all mice with single drug treatment had to be euthanized because the tumors had reached […] by 3 weeks post-treatment."}, "X16 BTICs": {"test_system": "X16 BTICs", "test": "cell proliferation of X16 BTICs", "format": "cell-based, human", "settings": "PFI-3 alone", "experimental": "FIG. 1A is a pair of graphs showing the effect of temozolomide (TMZ) on the proliferation of brain-tumor initiating cells (BTICs) obtained from two independent glioblastoma tumors, GBM6 (left) and X16 (right). Relative proliferation is shown for cells treated with 300 micromolar (μM) TMZ or 600 μM TMZ, as well as for untreated cells. *p≤0.05.\nas §1, with “therapy. […]” for “therapy.”"}, "GFAP": {"test_system": "GFAP", "settings": "X16 BTICs; cited from earlier work"}}, "data": [{"smiles": "O=C(/C=C/N1C[C@H]2C[C@@H]1CN2c1ccccn1)c1ccccc1O", "note": "[PFI-3, (E)-1-(2-hydroxyphenyl)-3-((1R,4R)-5-(pyridin-2-yl)-2,5-diazabicyclo[2.2.1]heptan-2-yl)prop-2-en-1-one]", "values": [{"measurement": "stabilization of the BRG1 bromodomain", "setting": "bromodomain of BRG1", "value": "stabilizes the BRG1 bromodomain"}, {"measurement": "tumors after treatment for 8 weeks", "setting": "X16 BTIC", "value": "less dramatic effect"}, {"measurement": "effect on BTIC proliferation", "setting": "X16 BTICs", "value": "only a slight growth inhibitory effect"}, {"measurement": "GFAP protein expression", "setting": "GFAP", "value": "upregulated GFAP protein expression"}]}]}
